In US4889953A, “Glycerol derivatives, their production and use” (Takeda Chemical Industries, Ltd., priority 1986, dated 1989):

Columns and labels:
[1] = tested on: Sarcoma 180 cells; assay: Antitumor action, Sarcoma 180 intraperitoneal in ICR mice, life-span and survivors on 40th day (Test Example 1); assay type: in vivo; settings: 0.33 mg/mouse i.p. three times
Experimental: Antitumor action of the compounds in Working Examples
ICR mice (a group consisting of five mice) were inoculated intraperitoneally with 1×10^5 Sarcoma 180 cells per mouse, and then given intraperitoneally 0.33 mg/mouse of a compound dissolved in physiological saline, three times, i.e. 1 hour, 1 day and 2 days after inoculation. Reference compound IV, Va or Vb was given to mice under the same conditions. Shown in Table 1 are the life-span prolongation ratio against the untreated control group and the number of survived mice on the 40th day after the initiation of the test.

[2] = tested on: Sarcoma 180 cells; assay: Antitumor action, Sarcoma 180 subcutaneous in ICR mice, intravenous dosing, tumor proliferation inhibition (Test Example 2); assay type: in vivo; settings: 0.3 mg/mouse i.v. 9 times; tumor weight after 21 days
Experimental: (§1) Antitumor action of the compound of Working Example 8
ICR mice (a group consisting of 5 mice) were inoculated subcutaneously with 1×10^6 Sarcoma 180 cells per mouse, and given intravenously 0.03 mg/mouse or 0.3 mg/mouse of the compound of Working Example 8 dissolved in physiological saline 9 times in total, i.e. 8, 9, 10, 13, 14, 15, 16, 17, and 20 days after inoculation. The Reference compound (IV), 0.3 mg/mouse, was given under the same conditions. After 21 days, the tumor tissue was extirpated and the tumor weight was weighed. Shown in Table 2 is tumor proliferation inhibition ratio as compared with the untreated control group.

[3] = tested on: mouse mammary carcinoma cells MM46; assay: Antitumor action, MM46 intraperitoneal in C3H mice, life-span and survivors on 40th day (Test Example 3); assay type: in vivo; settings: 0.25 mg/mouse once a day for 4 days
Experimental: as §1
C3H mice (a group consisting of 5 mice) were inoculated intraperitoneally with 1×10^4 mouse mammary carcinoma cells MM46 per mouse, and given 0.25 mg/mouse of the compound of Working Example 8 dissolved in physiological saline once a day for 4 consecutive days starting from the second day after the inoculation. The Reference compound (IV) was given under the same conditions. Shown in Table 3 are the life-span prolongation ratio against the untreated control group and the number of survived mice on the 40th day after initiation of the test.

[4] = tested on: Platelet aggregation caused by PAF; assay: Inhibition of PAF-induced platelet aggregation in rabbit PRP (Test Example 5); assay type: cell-based; settings: Oryctolagus cuniculus, PAF 1×10^-8 M, read-out: inhibition ratio (%) of PAF-induced platelet aggregation
Experimental: Blood was collected directly from a male rabbit, using a syringe containing 3.15% of citric acid (at a ratio of 1 part to 9 parts of blood) as an anticoagulant, and centrifuged at 800 rpm for 10 minutes at room temperature to obtain platelet rich plasma (PRP). The remaining blood was centrifuged further at 3000 rpm for 10 minutes to obtain platelet poor plasma (PPP) as the supernatant. By dilution of PRP with PPP, the platelet count was adjusted to about 500,000 cells/μl. After 250 μl of the resulting PRP was stirred at 37° C. for 2 minutes, a certain amount of the test compound was added, and the mixture was stirred for further 2 minutes, and then 1×10^-8 M of PAF was added. Platelet aggregation was measured by using a platelet aggregometer (manufactured by Rika Denki Co. in Japan). The aggregation-inhibiting activity of a test compound was determined from the inhibition ratio against maximal transmittance (maximal aggregation ratio) caused by PAF in the control PRP.

[5] = due to PAF-related structure; cited from earlier work
[6] = unlike PAF; cited from earlier work

Which “No. of survivors/No. of mice tested” value [1] does the source give for CCCCCCCCCCCCCCCCCCOCC(COP(=O)([O-])OCC[N+](C)(C)C)OC (stereo not shown) [Compound IV, reference compound] here?
The value was 0/5.

What about the “Life-span prolongation ratio (T/C, %)” value ([1]; only related to mice found dead) of the same compound?
Its value is 162%.

What about the “Inhibition ratio (1-T/C) (%)” value [2] of the same compound?
Its value is 58%.

What about the “No. of survivors/No. of mice tested” value [3] of the same compound?
The value was 0/5.

And the “Life-span prolongation ratio (T/C, %)” value ([3]; survivors not included)?
Its value is 155%.

What about the inhibition at 30 µM ([4]; 3 × 10^-5 M) of the same compound?
The inhibition at 30 µM was 0%.

What about the inhibition at 3 µM ([4]; 3 × 10^-6 M) of the same compound?
The inhibition at 3 µM was 0%.

What about the inhibition at 0.3 µM ([4]; 3 × 10^-7 M) of the same compound?
Its inhibition at 0.3 µM is 0%.

What about the PAF-like actions [5] of the same compound?
The PAF-like actions was “serotonin liberation, bronchial constriction, platelet aggregation, and blood pressure lowering”.

What about the antitumor actions [6] of the same compound?
Its antitumor actions is “antitumor actions”.
